Assay results as given in US7371813B2, “Method for use of IGF-binding protein for selective sensitization of target cells in vivo” (Bioexpertise LLC, priority 2000, dated 2008).
Marks after values point to notes of the source that are not given here.

Tests used:
[1] = system: 16C mammary adenocarcinoma; assay: 16C mammary adenocarcinoma SC tumor implants in C3H mice, tumor growth; assay type: in vivo; details: for Days Delay in tumor growth: endpoint of 1500 mg tumor weight, 16C tumors, C3H mice
Method: Female C3H mice (8-11 animals per group) received early SC implants of 16C mammary adenocarcinoma tumor fragments (near 100% “take”) and were treated with vehicle, [N109D]-IGFBP-3 (4 mg/kg/day SC ×21), 5-FU (10 mg/kg/day IP ×5), adriamycin (2 mg/kg/dose IV on day 1 and day 8 post-implant), or the indicated combinations. Tumors were measured twice weekly. Animals were sacrificed at Day 21. The doses of doxorubicin and 5-fluorouracil used in this experiment were chosen to be marginally effective, based on previous experience with these chemical agents in this model. […] The results are shown graphically in FIG. 2.

[2] = system: 1,176 mouse gene sequences; assay: Gene array analysis (Atlas 1.2k-I mouse gene arrays) of 16C tumor tissue; assay type: in vivo
Method: (§1) In order to gain further insights into the mechanism of action of exogenously added IGFBP-3 in these mouse models, tumor tissues from the groups treated with vehicle, doxorubicin, or doxorubicin plus IGFBP-3, were further analyzed using gene array technology. RNA was extracted from tumor tissue. cDNA was prepared, labelled and used to probe Atlas 1.2k-I mouse gene arrays (Clontech Laboratories Inc., Palo Alto, Calif.). These arrays contain 1,176 mouse gene sequences.

RXR-alpha = RXR-alpha levels in 16C tumor tissue (gene array); assay type: in vivo, mouse; details: 16C tumors from treated animals
Method: as §1

MDA-MB-231 tumors = assay: MDA-MB-231 mammary tumors implanted SC in nude mice, tumor growth; assay type: in vivo; details: for Median tumor volume, day 15: Day 15 post-implant (treatment start); for Median tumor volume, day 15 / Days Delay in tumor growth: MDA-MB-231, nude mice; for Median tumor volume, day 19: Day 19 post-implant; for Median tumor volume, day 22: Day 22 post-implant; for Median tumor volume, day 26: Day 26 post-implant; for Median tumor volume, day 29: Day 29 post-implant; for Median tumor volume, day 33: Day 33 post-implant; for Tumor growth, difference from control: statistical comparison with the control group; for Days Delay in tumor growth: endpoint of 3× doubling of tumor weight
Method: MDA-MB-231 tumors were implanted in nude mice. Ten animals (NCr-nu) were allocated to each group. The tumors were implanted SC as trocar fragments and allowed to increase in size to approximately 170 mg before treatment began on Day 15 post-implant. The treatment regimen for [N109D]-IGFBP-3 was 4.0 mg/kg/dose, daily for 21 days, SC beginning on Day 15. The treatment regimen for Taxol was 5.0 mg/kg/day, daily for five days, IV. The treatment regimen for Cisplatin was 4.0 mg/kg/dose, administered every fourth day for three treatments, IP. Treatment regimens for TAXOL® and Cisplatin began on Day 18. Tumor measurements were performed daily.

tumor growth = assay: Systemic IGFBP-3 alone in animal models of cancer, tumor growth; assay type: in vivo; details: 4 mg/kg for 21 days, more than one animal model of cancer
Method: This was surprising because it was believed that IGFBP-3 alone could cause the death of some tumor cells. The dose chosen is likely to be close to the maximum practicable dose that would be systemically delivered in a human clinical setting. The maximum practicable dose is determined by the cost, pharmacokinetics, toxicology, solubility of the formulation, route of administration, and other practical considerations.

| Compound | Days Delay in tumor growth [1] | Median tumor volume, day 15 (MDA-MB-231 tumors) [milligrams] | Median tumor volume, day 19 (MDA-MB-231 tumors) [milligrams] | Median tumor volume, day 22 (MDA-MB-231 tumors) [milligrams] | Median tumor volume, day 26 (MDA-MB-231 tumors) [milligrams] | Median tumor volume, day 29 (MDA-MB-231 tumors) [milligrams] | Median tumor volume, day 33 (MDA-MB-231 tumors) [milligrams] | Tumor growth, difference from control (MDA-MB-231 tumors) | Days Delay in tumor growth (MDA-MB-231 tumors) | other results |
| --- | --- | --- | --- | --- | --- | --- | --- | --- | --- | --- |
| O=c1[nH]cc(F)c(=O)[nH]1 [5-FLUOROURACIL, 5-fluorouracil] | +1.9 days | – | – | – | – | – | – | – | – | – |
| COc1cccc2c1C(=O)c1c(O)c3c(c(O)c1C2=O)C[C@@](O)(C(=O)CO)C[C@@H]3O[C@H]1C[C@H](N)[C@H](O)[C@H](C)O1 [ADRIAMYCIN ®, doxorubicin] | +2.5* days | – | – | – | – | – | – | – | – | Number of down-regulated genes ([2]; among the differentially expressed genes): 16 genes; Number of differentially expressed genes ([2]; of 1,176 gene sequences): 26 genes; Share of genes differentially expressed ([2]; of 1,176 gene sequences): 2%; Inhibition of RXR-alpha levels in tumors (RXR-alpha): not |
| N.N.[Cl][Pt][Cl] [CISPLATIN, cisplatin] | – | 171 ± 33 | 368 ± 124 | 446 ± 175 | 563 ± 214 | 675 ± 220 | 922 ± 299 | significantly different from control | – | – |
| CC(=O)O[C@H]1C(=O)[C@@]2(C)[C@H]([C@H](OC(=O)c3ccccc3)[C@]3(O)C[C@H](OC(=O)[C@H](O)[C@@H](NC(=O)c4ccccc4)c4ccccc4)C(C)=C1C3(C)C)[C@]1(OC(C)=O)CO[C@@H]1C[C@@H]2O [TAXOL ®, paclitaxel] | – | 153 ± 32 | 327 ± 131 | 384 ± 337 | 512 ± 489 | 648 ± 538 | 900 ± 1067 | significantly different from control | +3.5 days | – |
| IGFBP-3: insulin-like growth factor binding protein 3; in Table 2 the group received [N109D]-IGFBP-3 | – | 161 ± 35 | 367.5 ± 244 | 565 ± 510 | 818.5 ± 750 | 1089 ± 851 | 1936 ± 1825 | – | – | Slowing of tumor growth by IGFBP-3 alone (tumor growth): completely ineffective |
| [N109D]-IGFBP-3: derivative of IGFBP-3 that has an amino acid sequence alteration at position 109 of the mature sequence | -0.2 days | – | – | – | – | – | – | not significantly different from control | -2.2 days | Effect on tumor growth on its own ([1]; 4 mg/kg/day SC ×21): no measurable effects; Potentiation of the effects of co-administered doxorubicin and 5-fluorouracil ([1]; 4 mg/kg/day SC ×21 with marginally effective doses of the agents): significantly (p<0.01) potentiated the effects of both agents |
